The subject of one assay is CHO. Put plainly: Inhibition of senktide-evoked increases in intracellular calcium levels in CHO cells measured using the fluorescent indicator Fura 2. Format: functional, Cricetulus griseus. On the technique in general: A change in cytosolic calcium serves as a functional read-out for many receptors and channels.
For another assay, the target named is T1, Neuromedin-K receptor (Homo sapiens, UniProt P29371).
T1 sequence (P29371 whole entry): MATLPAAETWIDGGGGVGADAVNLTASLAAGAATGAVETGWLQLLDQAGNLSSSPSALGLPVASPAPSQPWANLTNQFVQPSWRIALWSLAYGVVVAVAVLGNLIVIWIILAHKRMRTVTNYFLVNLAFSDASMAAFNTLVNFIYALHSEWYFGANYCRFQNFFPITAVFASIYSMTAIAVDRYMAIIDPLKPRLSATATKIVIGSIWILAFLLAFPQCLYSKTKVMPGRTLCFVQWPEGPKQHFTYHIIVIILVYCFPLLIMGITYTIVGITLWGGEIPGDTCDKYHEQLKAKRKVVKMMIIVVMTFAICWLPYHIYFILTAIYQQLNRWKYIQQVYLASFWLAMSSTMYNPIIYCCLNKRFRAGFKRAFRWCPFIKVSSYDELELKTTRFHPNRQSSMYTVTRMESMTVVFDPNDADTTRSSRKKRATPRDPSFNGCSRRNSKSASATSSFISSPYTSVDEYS
Put plainly: Compound was tested for binding affinity against human Tachykinin receptor 3 in CHO cells. Format: cell-based.

In a further assay the target is Substance-P receptor (Homo sapiens, UniProt P25103). Put plainly: Compound was tested for binding affinity against human NK1 receptor.
Substance-P receptor, sequence (P25103 whole entry): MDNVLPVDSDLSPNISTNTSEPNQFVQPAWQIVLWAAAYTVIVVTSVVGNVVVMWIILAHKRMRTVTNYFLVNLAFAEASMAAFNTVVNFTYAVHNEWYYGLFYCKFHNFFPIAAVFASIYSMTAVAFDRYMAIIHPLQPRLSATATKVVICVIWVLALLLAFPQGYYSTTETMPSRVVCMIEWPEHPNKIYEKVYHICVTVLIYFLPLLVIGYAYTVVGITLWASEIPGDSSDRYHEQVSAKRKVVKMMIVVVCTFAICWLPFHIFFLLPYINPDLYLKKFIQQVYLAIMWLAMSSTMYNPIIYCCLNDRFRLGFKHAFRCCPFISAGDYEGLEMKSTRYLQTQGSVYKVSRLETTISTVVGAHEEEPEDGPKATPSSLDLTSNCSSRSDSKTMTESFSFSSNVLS

This passage reports Ke and IC50 results from ChEMBL document CHEMBL1128788, “The development of a novel series of non-peptide tachykinin NK3 receptor selective antagonists” (Bioorg Med Chem Lett, 1995).

Molecules are shown by their SMILES.

By IC50 is commonly meant the midpoint of a concentration-inhibition curve.

For the compound `CC(C)[C@H](OC(=O)N[C@](C)(Cc1ccccc1F)C(=O)NCCCCCCCNC(N)=O)c1ccccc1`, in the assay on CHO, the Ke worked out at 2.2 nM.

In the case of `CC(NC(=O)[C@@](C)(Cc1cc2ccccc2[nH]1)NC(=O)OC(c1ccccc1)C(C)C)c1ccccc1` (stereo partly drawn), the IC50 amounted to 1200 nM on Neuromedin-K receptor and 1400 nM on Substance-P receptor.
